In patent US20180044628A1, “Method for Biofilm Control and Treatment” (priority 2015, published 2018):

Experiments:
Format in all cases: cell-based, Bacillus subtilis NCIB 3610
[1] = test system: Bacillus subtilis biofilms; test: Biofilm growth oscillations in a microfluidic device, followed by time-lapse phase contrast microscopy and image differencing
Description: Growth conditions. The biofilms were grown using MSgg medium^16. It contains 5 mM potassium phosphate buffer (pH 7.0), 100 mM MOPS buffer (pH 7.0, adjusted using NaOH), 2 mM MgCl2, 700 μM CaCl2, 50 μM MnCl2, 100 μM FeCl3, 1 μM ZnCl2, 2 μM thiamine HCl, 0.5% (v/v) glycerol and 0.5% (w/v) monosodium glutamate. The MSgg medium was made from stock solutions on the day of the experiment, and the stock solution for glutamate was made each week.
Microfluidics. The CellASIC ONIX Microfluidic Platform and the Y04D microfluidic plate (EMD Millipore) were used. It provides unconventionally large chambers, allowing the formation of colonies containing millions of cells, yet still leaves room for media flow. Media flow in the microfluidic chamber was driven by a pneumatic pump from the CellASIC ONIX Microfluidic Platform, and the pressure from the pump was kept stable during the course of the oscillation. In most of the experiments, a pump pressure of 1 psi was used with only one media inlet open (there are 6 media inlets in the Y04D plate), which corresponds to a flow speed of ˜16 μm/s in the growth chamber.
On the day before the experiment, cells from −80° C. glycerol stock were streaked onto LB agar plate and incubated at 37° C. for overnight. The next day morning, a single colony was picked from the plate and inoculated into 3 ml of LB broth in a 50 ml conical tube, and then incubated in 37° C. shaker. After 2.5 hours of incubation, the cell culture was centrifuged at 2100 rcf for 1 min, and then the cell pellet was re-suspended in MSgg and then immediately loaded into microfluidics. After the loading, cells in the microfluidic chamber were incubated at 37° C. for 90 min, and then the temperature was kept at 30° C. for the rest of the experiment.
Time-Lapse Microscopy. The growth of the biofilms was recorded using phase contrast microscopy. The microscopes used were Olympus IX81 and IX83, and DeltaVision PersonalDV. To image entire biofilms, 10× lens objectives were used in most of the experiments. Images were taken every 10 min Whenever fluorescence images were recorded, the minimum exposure time was used that still provided a good signal-to-noise ratio.
(§1) Biofilm growth rate. ImageJ (National Institutes of Health) and MATLAB (MathWorks) were used for image analysis. In house software was also developed to perform colony detection and quantification of colony expansion. Multiple methods of colony detection were used to ensure the accuracy of the analysis. To detect regions of expansion in a biofilm, image differencing was performed on snapshots of the biofilm from time-lapse microscopy videos. Specifically, the difference between two consecutive phase contrast images (taken 10 min apart) was calculated by finding the absolute difference between each pixel in each image. […] The intensity values from the stack correlate with the expansion inside the biofilm. The growth area was determined by converting difference images to binary images and then measuring the area of the colony growth region (white pixels). To measure cell replication time, the length and division of individual cells were tracked in the biofilm periphery (FIG. 8b).

[2] = test system: nasA promoter; test: PnasA-YFP reporter of glutamine limitation in biofilms, with constitutive Phyperspank-CFP as control
Description: FIG. 2a. […] Glutamine limitation was monitored using YFP expressed from the nasA promoter, which is activated upon glutamine limitation^21. FIG. 2b. […] FIG. 2c. Growth area before and after addition of 1 mM glutamine to an oscillating colony. FIG. 2d. […] FIG. 2e. […] Scale bar represents 100 μm. FIG. 2f. Growth area of an oscillating colony before and after addition of 30 mM glutamate (shading). FIG. 2g.
To determine whether biofilms experience glutamine limitation, expression of nasA, one of several genes activated in response to a lack of glutamine^21, was measured.

[3] = test system: Bacillus subtilis biofilms; test: Cell death (Sytox Green) and cell growth (difference images) within biofilms under external attack
Description: Scale bar represents 50 μm. […] Error bars represent standard deviations.
Scale bar represents 100 μm.
as §1

[4] = 1 mM glutamine added to growth media

N [ammonium]
colony growth after removal of external ammonium ([1]; additional ammonium (13 mM) suddenly removed from the media): growth in the biofilm periphery halted
effect on periodic halting in biofilm expansion ([1]; media supplemented with 1 mM ammonium): eliminated the periodic halting in biofilm expansion
expression from constitutive reporter (Phyperspank-CFP + 1 mM IPTG) ([2]; 1 mM external ammonium added): does not affect expression from a constitutive reporter
expression from the PnasA-YFP reporter ([2]; 1 mM external ammonium added): represses expression from the PnasA-YFP reporter

O=C(N[C@H](CO)[C@H](O)c1ccc([N+](=O)[O-])cc1)C(Cl)Cl [chloramphenicol]
growth of interior cells after attack ([3]; wild type biofilm, chloramphenicol 5 μg/ml (FIG. 12)): growth of interior cells was observed

NC(=O)CC[C@H](N)C(=O)O [glutamine]
effect on periodic halting of biofilm growth (oscillations) ([1]; 1 mM glutamine added to MSgg medium, oscillating colony): eliminated periodic halting of biofilm growth
expression of constitutive promoter (Phyperspank-CFP + 1 mM IPTG) [2, 4]: did not affect expression of a constitutive promoter
nasA promoter expression (PnasA-YFP) [2, 4]: reduced nasA promoter expression

OO [hydrogen peroxide]
killing of biofilm ([3]; GDH overexpression strain (Phyp-RocG, induced with 1 mM IPTG) exposed to hydrogen peroxide): more effective global killing throughout the biofilm
cell death (Sytox marker) in biofilm ([3]; wild type biofilm, H2O2 2% w/w (FIG. 4b) or 0.15% v/v (FIG. 12)): increased cell death was observed predominantly in the biofilm periphery
growth of interior cells after attack ([3]; wild type biofilm, H2O2 2% w/w (FIG. 4c) or 0.15% v/v (FIG. 12)): led to growth of interior cells

OCC(O)CO [glycerol]
effect on biofilm oscillations ([1]; glycerol increased by 5 times of normal MSgg levels): does not

N[C@@H](CCC(=O)O)C(=O)[O-].[Na+] [glutamate, monosodium glutamate]
effect on biofilm oscillations ([1]; 30 mM glutamate added to MSgg medium, oscillating colony): not quenched
effect on biofilm oscillations ([1]; glutamate increased by 5 times of normal MSgg levels): leads to quenching of the oscillation
